Each structure is given as a SMILES string.

The record followed here is patent US12122821B2, “Regulation of glucose metabolism using anti-CGRP antibodies” (H. LUNDBECK A/S, priority 2013, dated 2024).

Common to all, as to type: in vivo
In test [1] the test system is Zucker diabetic fatty (ZDF) rat. The test is described as follows: Body weight and food intake in ZDF rats (Example 3). The conditions noted are these: pioglitazone 10 mg/kg/day, vs vehicle ZDF. On the procedure: For the groups treated with AB14, the antibody was administered once weekly via the caudal vein (i.v., 5 mL/kg) on days 1, 8, 15, and 22 at two different doses 20 mg/kg/week (groups 3 and 7) or 60 mg/kg/week (groups 4 and 8). All other groups were treated once weekly with vehicle 1 (i.v., 5 mL/kg). The intravenous treatments were performed in the morning on day 1, 8, 15, and 22 while under isoflurane anaesthesia. The volume of administration was individually adapted according to the most recent body weight. […] All other groups were treated daily with vehicle 2 (p.o., 5 mL/kg) for 28 days. The most recent body weight was used to calculate the average volume of administration in each group. Body weight was measured twice a week during the 4 weeks of treatment. Food consumption was measured just before the screening procedure and then twice weekly over 24 h during the first three weeks of treatment. Food consumption was measured once weekly during the week of OGTT (week 4).

The test system is the same in test [2]. The experiment in a line: Fasting blood glucose, plasma insulin, C-peptide and HOMA-IR in ZDF rats (Example 3). The conditions noted are these: vs vehicle ZDF. On the procedure:
(§1) For the groups treated with AB14, the antibody was administered once weekly via the caudal vein (i.v., 5 mL/kg) on days 1, 8, 15, and 22 at two different doses 20 mg/kg/week (groups 3 and 7) or 60 mg/kg/week (groups 4 and 8). All other groups were treated once weekly with vehicle 1 (i.v., 5 mL/kg). The intravenous treatments were performed in the morning on day 1, 8, 15, and 22 while under isoflurane anaesthesia. The volume of administration was individually adapted according to the most recent body weight.
(§2) All other groups were treated daily with vehicle 2 (p.o., 5 mL/kg) for 28 days. The most recent body weight was used to calculate the average volume of administration in each group.
(§3) A fasting (6 hours on day 0 from 8:00 am to 02:00 pm, and overnight on day 12, 19 and 26 from ˜6:00 pm to ˜8:00 am) was performed before each blood collection. Blood was collected at ˜2:00 pm, from the tip of the tail, on day 0 (before screening, 150 μL, potassium EDTA), and at ˜8:00 am prior to dosing on days 12 (110 μL, potassium EDTA), 19 (150 μL, potassium EDTA) and 26, (110 μL, potassium EDTA).
(§4) Fasting blood glucose (glucometers) was measured on days 0, 12, 19, and 26. Fasting plasma insulin, peptide-C (ELISA method), free fatty acids, triglycerides, total cholesterol (colorimetric method), and HDL-cholesterol (phosphotungstate precipitation, colorimetric method) were measured on day 0, and prior to dosing on days 12, 19, and day 26. Non HDL-cholesterol was calculated as total cholesterol—HDL-cholesterol. Fructosamine was measured on days 0, 19 and 28. HbA1c (DCA 2000) was measured on days 0 and 28.

For test [3] the test system is unchanged. The test is described as follows: Fructosamine and HbA1c in ZDF rats (Example 3). Particulars: vs vehicle ZDF. The procedure:
as §1, §2, §4

Test [4] shares this test system. The test is described as follows: Plasma triglycerides, free fatty acids and cholesterol in ZDF rats (Example 3). The conditions noted are these: for increase of plasma HDL-cholesterol / decrease of plasma non HDL-cholesterol levels: vs vehicle; for lowering of plasma free fatty acids levels: vs vehicle ZDF. On the procedure: as §1, §2, §3, §4
The test system is the same in test [5]. The test is described as follows: Oral glucose tolerance test on day 26 in ZDF rats (Example 3). On the procedure: The oral glucose tolerance test (OGTT) was performed as follows. On day 25, rats were fasted at ˜6:00 pm and an oral glucose tolerance test was performed the day after (on day 26). At ˜8:00 am (T-60) a blood collection (110 μL, EDTA) was performed for biochemical parameters measurements. One hour after (˜09:00 am), an oral glucose bolus (1.5 g/kg) was administered (T0). Blood glucose was measured (glucometer or colorimetric method in case of high glycaemia) on T-60, T0, T15, T30, T60, T90, T120, and T180 minutes. Area under the curve (AUC) was calculated based on the blood glucose values measured at T0. Plasma insulin and C-peptide were measured (ELISA method) on T-60, T15 (·40 μL of blood, EDTA), and T30 minutes (·40 μL of blood, EDTA).

The mark [6] stands for this setting: day 12, pioglitazone 10 mg/kg/day.
Setting [7] is: day 19, pioglitazone 10 mg/kg/day.
Setting [8] is: day 26, pioglitazone 10 mg/kg/day.
Setting [9] is: days 12, 19 and 26, pioglitazone 10 mg/kg/day.
The mark [10] stands for this setting: OGTT day 26, pioglitazone 10 mg/kg/day, vs vehicle ZDF.

Turning to `CCc1ccc(CCOc2ccc(CC3SC(=O)NC3=O)cc2)nc1` (centres unmarked) [pioglitazone], in test [1], the “body weight gain at the end of the treatment” value is on record as 3 fold. For the same compound, the “increase of cumulative food intake” value in test [1] (NS) is 14%. Moreover, the “reduction of HOMA-IR” value in test [2] (setting [6]) is reported as 67%. The “reduction of HOMA-IR” value in test [2] (setting [7]) amounted to 62%. For the same compound, in test [2] (setting [8]), the “reduction of HOMA-IR” value is listed as 54%. Also, in test [2] (setting [9]), the “plasma C-peptide levels” value is listed as “no effect” and the plasma insulin levels entry was “no effect”. The “decrease of HbA1c” value in test [3] (28 days, pioglitazone 10 mg/kg/day, metformin 200 mg/kg/day) stood at 44%. Besides, the “reduction of fructosamine levels” value in test [3] (day 19, pioglitazone 10 mg/kg/day, metformin 200 mg/kg/day) stood at 30%. The “reduction of fructosamine levels” value in test [3] (day 28, pioglitazone 10 mg/kg/day) amounted to 25%. Moreover, in test [4] (setting [6]), the “increase of plasma HDL-cholesterol” value is recorded as 38% and the “lowering of plasma free fatty acids levels” value is 35%. Also, in test [4] (setting [7]), the “decrease of plasma non HDL-cholesterol levels” value was 49%, the “increase of plasma HDL-cholesterol” value came to 17% and the “lowering of plasma free fatty acids levels” value was 17%. In addition, in test [4] (setting [8]), the “decrease of plasma non HDL-cholesterol levels” value came to 47%, the “increase of plasma HDL-cholesterol” value was 19% and the “lowering of plasma free fatty acids levels” value is reported as 30%. Further, in test [5] (setting [10]), the “increase of C-peptide secretion (relative to T-60) at T15” value came out at 21%, the “increase of C-peptide secretion (relative to T-60) at T30” value is recorded as 22% and the “increase of insulin secretion (relative to T-60) at T30” value worked out at 5%. In addition, the “increase of insulin secretion (relative to T-60) at T15” value in test [5] (OGTT day 26, vs vehicle ZDF (pioglitazone 10 mg/kg/day)) stood at 20%. Moreover, in test [5] (day 26, pioglitazone 10 mg/kg/day, metformin 200 mg/kg/day, vs vehicle ZDF), the “reduction in blood glucose AUC (OGTT)” value is 54%.
